The record followed here is patent publication US20250281424A1 (New York Blood Center, Inc, priority 2020, published 2025).

One data set deals with T1, human PF4 (Homo sapiens, UniProt P02776).
T1 construct: PF4 is a 70 amino acid, lysine-rich 7.8 kDa platelet-specific protein; made in house; host or cells: Escherichia coli BL21DE3 pLysS (pT7-7) and/or Drosophila S2 cells
T1 sequence (P02776 32-101): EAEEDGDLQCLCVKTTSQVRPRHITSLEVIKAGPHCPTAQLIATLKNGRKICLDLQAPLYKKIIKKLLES
In words: Inhibition of PF4 tetramer formation (BS3 cross-linking, SDS-PAGE). In kind it is biochemical. To be noted: for IC50: read-out: IC50 of PF4 tetramer formation inhibition. In a few lines:
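Recombinant human wild-type PF4 (E. coli-expressed, heparin-purified), 10 μg/ml in PBS, incubated with compound 15 min at 37° C or 60 min at room temperature, then cross-linked with 0.2 mM BS3 for 30 min at room temperature. Reducing 12% SDS-PAGE; bands quantified as % tetramer, trimer, dimer, monomer versus compound-free control.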

Data set [1] is described as follows: Cytotoxicity HepG2 (MTS reduction). In kind it is cell-based. To be noted: human, HepG2 cells; read-out: Cytotox HepG2 EC50. (In general: Tetrazolium assays rely on reduction of a dye to a coloured formazan, in cell work by metabolically active cells.)
A short description of data set [2]: Cytotoxicity NIH3T3 (MTS reduction). In kind it is cell-based. To be noted: mouse, NIH3T3 cells, 1 hour exposure in the absence of serum, N = 3, read-out: Cytotox NIH3T3 EC50.
Data set [3] is described as follows: Human microsome stability. In kind it is in vitro ADME. To be noted: for half-life at 0.5 μM / microsomal CLint at 0.5 μM: Human microsomes, compound conc = 0.5 μM, n = 1; for half-life at 0.5 μM: read-out: Human microsome stability Half life t1/2; for microsomal CLint at 0.5 μM: read-out: Human microsome stability Intrinsic Clearance Clint (ml/min/mg protein); for intrinsic clearance in human microsome assay / stability in human microsome assay: human microsomes. From the text:
(§1) Certain exemplified compounds were examined for ADMET (absorption, distribution, metabolism, excretion and toxicity) profiling using conventional assays with the results shown in the Tables 3A-3C below.

The target of the next data set is P450 2C9 (Homo sapiens, UniProt P11712). In words: P450 inhibition 2C9. In kind it is in vitro ADME. How it is done:
as §1
(§2) Examples 1 and 3 were evaluated as inhibitors of the five P450s that are the source of most DDI issues. […] The tested compounds meet drug property criteria for IV administration.

The target in the next data set is P450 3A4 (midazolam) (Homo sapiens, UniProt P08684). In words: P450 inhibition 3A4 (midazolam). In kind it is in vitro ADME. The procedure:
as §1, §2

Data set [4] is described as follows: Kinetic solubility pH 7.4. In kind it is physicochemical.
From the text: as §1

For data set [5], the target named is human Ether-à-go-go-Related Gene (hERG) (Homo sapiens, UniProt Q12809). Nature of the data set: hERG patch clamp assay. To be noted: for hERG inhibition: 30 μM concentration, patch clamp. In kind it is in vitro ADME. How it is done:
as §1, §2
For orientation: The hERG channel carries a current that helps repolarise heart muscle cells.

Setting [6] is: pH 7.4, aqueous buffer, kinetic from dmso stock.

Converted amounts (≈) assume the structure as drawn. Where two headings read alike, the source gives them in different places.

Chain of P450 3A4 (midazolam) (P08684 whole entry): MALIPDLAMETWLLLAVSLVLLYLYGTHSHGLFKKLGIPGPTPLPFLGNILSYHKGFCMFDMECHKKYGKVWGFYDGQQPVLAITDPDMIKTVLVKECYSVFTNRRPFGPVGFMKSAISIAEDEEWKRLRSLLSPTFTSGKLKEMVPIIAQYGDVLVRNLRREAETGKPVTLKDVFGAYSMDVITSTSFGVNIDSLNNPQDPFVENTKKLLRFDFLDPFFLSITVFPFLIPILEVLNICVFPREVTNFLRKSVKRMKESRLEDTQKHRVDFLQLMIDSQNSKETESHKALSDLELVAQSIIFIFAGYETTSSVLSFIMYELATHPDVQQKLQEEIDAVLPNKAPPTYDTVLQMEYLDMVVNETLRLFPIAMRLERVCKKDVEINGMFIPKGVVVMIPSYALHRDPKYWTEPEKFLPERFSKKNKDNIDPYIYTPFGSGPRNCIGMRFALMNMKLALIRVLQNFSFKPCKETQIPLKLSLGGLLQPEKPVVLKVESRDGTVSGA
Chain of human Ether-à-go-go-Related Gene (hERG) (Q12809 whole entry): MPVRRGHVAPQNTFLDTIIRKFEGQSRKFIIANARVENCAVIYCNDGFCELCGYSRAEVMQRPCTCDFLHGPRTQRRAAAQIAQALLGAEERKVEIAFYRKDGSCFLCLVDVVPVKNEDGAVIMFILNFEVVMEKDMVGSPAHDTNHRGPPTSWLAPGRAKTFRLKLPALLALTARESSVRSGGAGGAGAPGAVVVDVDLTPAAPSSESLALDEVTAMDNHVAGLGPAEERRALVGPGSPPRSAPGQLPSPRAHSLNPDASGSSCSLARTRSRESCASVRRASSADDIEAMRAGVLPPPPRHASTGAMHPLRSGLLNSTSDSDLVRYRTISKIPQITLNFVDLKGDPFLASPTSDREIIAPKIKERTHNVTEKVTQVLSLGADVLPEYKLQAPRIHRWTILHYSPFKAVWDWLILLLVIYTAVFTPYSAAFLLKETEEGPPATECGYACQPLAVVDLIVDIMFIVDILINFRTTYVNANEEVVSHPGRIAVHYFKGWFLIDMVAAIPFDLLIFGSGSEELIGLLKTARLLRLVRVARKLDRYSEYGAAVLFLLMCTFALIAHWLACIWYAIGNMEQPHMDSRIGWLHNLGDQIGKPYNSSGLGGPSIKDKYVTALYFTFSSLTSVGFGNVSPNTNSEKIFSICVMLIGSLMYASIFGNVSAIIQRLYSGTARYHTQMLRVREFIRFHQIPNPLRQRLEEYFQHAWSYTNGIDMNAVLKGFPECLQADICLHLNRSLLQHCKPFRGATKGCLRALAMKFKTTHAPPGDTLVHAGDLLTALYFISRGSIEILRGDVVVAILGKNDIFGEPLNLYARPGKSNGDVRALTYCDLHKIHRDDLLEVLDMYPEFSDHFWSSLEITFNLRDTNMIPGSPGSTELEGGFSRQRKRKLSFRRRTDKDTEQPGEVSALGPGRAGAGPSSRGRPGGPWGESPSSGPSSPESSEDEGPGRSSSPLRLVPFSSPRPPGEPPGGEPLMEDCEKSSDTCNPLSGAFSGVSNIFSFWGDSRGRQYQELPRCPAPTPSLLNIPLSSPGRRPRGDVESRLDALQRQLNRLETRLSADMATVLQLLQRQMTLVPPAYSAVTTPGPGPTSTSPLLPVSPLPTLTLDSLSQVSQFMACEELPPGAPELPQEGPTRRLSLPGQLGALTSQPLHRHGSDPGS
Chain of P450 2C9 (P11712 whole entry): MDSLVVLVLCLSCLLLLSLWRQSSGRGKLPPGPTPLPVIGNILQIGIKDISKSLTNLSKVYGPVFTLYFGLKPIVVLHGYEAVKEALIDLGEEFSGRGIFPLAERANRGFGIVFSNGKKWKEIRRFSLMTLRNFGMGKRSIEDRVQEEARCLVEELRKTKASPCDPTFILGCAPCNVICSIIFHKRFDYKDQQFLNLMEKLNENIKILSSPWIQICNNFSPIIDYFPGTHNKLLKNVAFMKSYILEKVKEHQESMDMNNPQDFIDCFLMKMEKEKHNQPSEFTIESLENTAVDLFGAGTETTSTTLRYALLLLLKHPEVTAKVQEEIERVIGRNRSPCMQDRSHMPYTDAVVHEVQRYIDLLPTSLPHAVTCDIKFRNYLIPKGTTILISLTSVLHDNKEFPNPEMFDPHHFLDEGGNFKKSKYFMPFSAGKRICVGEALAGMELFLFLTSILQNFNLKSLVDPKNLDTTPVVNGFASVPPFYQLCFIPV

With `CC(=O)C1C(=O)c2ccc(C(=O)c3ccc4c(c3)C(=O)C(C(C)=O)C4=O)cc2C1=O` (centres unmarked) [Example 1, 5,5′-carbonylbis(2-acetyl-1h-indene-1,3(2h)-dione)], the IC50 (as a rule, the point on the concentration scale where inhibition reaches its midpoint) on human PF4 was determined as 7 µM. The concentration for a half-maximal effect (EC50) (usually the concentration that produces a half-maximal response) in data set [1] was greater than 1000 µg/mL. Besides, the EC50 at 1 h in data set [2] is greater than 1000 µg/mL. In data set [3], the half-life at 0.5 μM stood at 1.44 h, the microsomal CLint at 0.5 μM was 15.8 mL/min/mg, the “intrinsic clearance in human microsome assay” value is reported as “low intrinsic clearance” and the “stability in human microsome assay” value is “excellent stability”. On P450 2C9, the IC50 is 31.9 µM and the “inhibition of P450 2C9” value is recorded as “only moderate inhibition”. In addition, on P450 3A4 (midazolam), the IC50 was greater than 100 µM and the “inhibition of P450 3A4 midazolam” value is listed as “no inhibition”. Also, the solubility (kinetic) (usually solubility judged after dilution from a stock solution rather than from solid) in data set [4] (pH 7.4) is on record as greater than 200 µM. The kinetic solubility in data set [4] (setting [6]) is greater than 200 µM. Further, in data set [5], the IC50 is greater than 30 µM and the “hERG inhibition” value is reported as “no significant inhibition”.
Take `CCOC(=O)C1C(=O)c2ccc(C(=O)c3ccc4c(c3)C(=O)C(C(=O)OCC)C4=O)cc2C1=O` (centres unmarked) [Example 3, diethyl 5,5′-carbonylbis(1,3-dioxo-2,3-dihydro-1h-indene-2-carboxylate)]: on human PF4 (100 μM inhibitor, read-out: % inhibition of PF4 tetramer formation at single concentration of inhibitor), the inhibition at 100 µM is 100%. Moreover, the “inhibition of PF4 tetramerization” value against human PF4 (FIG. 6A) is “dose-dependent inhibition”. Further, the IC50 at human PF4 was determined as 2 µM. Besides, the concentration giving a half-maximal response (EC50) in data set [1] is greater than 500 µg/mL. Further, the EC50 at 1 h in data set [2] was greater than 500 µg/mL. In data set [3], the half-life at 0.5 μM is greater than 2.42 h, the microsomal CLint at 0.5 μM is less than 9.5 mL/min/mg, the “intrinsic clearance in human microsome assay” value is given as “low intrinsic clearance” and the “stability in human microsome assay” value is “excellent stability”. The “inhibition of P450 2C9” value on P450 2C9 was “only moderate inhibition”. Besides, the 50% inhibitory concentration (IC50) on P450 2C9 (read-out: P450 Inhibition IC50 2C9) came out at 16.7 µM. Also, the “inhibition of P450 3A4 midazolam” value on P450 3A4 (midazolam) is reported as “no inhibition”. Further, the 50% inhibitory concentration (IC50) on P450 3A4 (midazolam) (midazolam, read-out: P450 Inhibition IC50 3A4 (midazolam)) is greater than 100 µM. Also, the “aqueous solubility” value in data set [4] is “good aqueous solubility”. The compound further returned a kinetic solubility in data set [4] (setting [6]) of 88.2 µM (≈ 40.8 µg/mL). Besides, the “hERG inhibition” value in data set [5] was “no significant inhibition”. Further, the IC50 in data set [5] (read-out: hERG IC50) is greater than 30 µM.
